Where two headings read alike, the source gives them in different places.
System: surface-bound mouse prions (RML)
Conditions: for Incubation time s.d. / Sick/total: Table 4, infectious wires treated: sodium hydroxide 1M 1 h, formaldehyde 10% 1 h, guanidinium thiocyanate 4M 16 h, 25° C.; for Infectivity of treated prion-coated wires: sodium hydroxide 1 M 1 h, guanidinium thiocyanate 4 M 16 h, formaldehyde 10%

| SMILES | Incubation time s.d. [days] | Sick/total | Infectivity of treated prion-coated wires | Incubation time s.d. (listed as formaldehyde) [days] |
| --- | --- | --- | --- | --- |
| N#CS.N=C(N)N [Guanidinium thiocyanate] | >260 | 0/6 | completely non-infectious | – |
| [Na+].[OH-] [Sodium hydroxide] | >260 | 0/6 | completely non-infectious | – |
| C=O [Formaldehyde] | 92 ± 8 | 6/6 | – | 92 ± 8 |

Reference: patent publication US20080108085A1 (priority 2001, published 2008)
